According to patent US20040096465A1, “Novel receptors for $1(helicobater pyroli) and use thereof” (priority 2001, published 2004):
“Also recorded” adds a separate entry of the source.

Tests used:
[1] = tested on: Helicobacter pylori; assay: TLC bacterial overlay assay with 35S-labeled Helicobacter pylori; format: binding; settings: for binding activity of neoglycolipid with regard to Helicobacter pylori: oligosaccharide reductively aminated with 4-hexadecylaniline (HDA); for lowest amount of glycolipid giving a positive response on TLC plates: dilution series, semi-quantitative, evaluated visually, pentaglycosylceramide mean of 7 experiments; for binding of Helicobacter pylori to the glycosphingolipid on TLC plates: overlay with 35S-labeled bacteria, autoradiography, visual evaluation; for binding of Helicobacter pylori strain 032 to purified glycosphingolipids (FIGS. 7A and 7B): 4 μg per lane, autoradiography 72 h; for binding of Helicobacter pylori strain 032 to purified glycosphingolipids (FIGS. 7A and 7B) / binding frequency: strain 032; for binding frequency: total number of plates about 100
[2] = tested on: Helicobacter pylori; settings: Mysore et al.; cited from earlier work
[3] = tested on: Helicobacter pylori binding to human gastrointestinal cell lines; settings: Simon et al.; cited from earlier work

CCCCCCCCCCCCCCCCc1ccc(NC[C@H](O)[C@@H](O)[C@H](O[C@@H]2O[C@H](CO)[C@H](O)[C@H](O[C@@H]3O[C@H](CO)[C@@H](O[C@@H]4O[C@H](CO)[C@H](O)[C@H](O[C@@H]5O[C@H](CO)[C@@H](O)[C@H](O)[C@H]5NC(C)=O)[C@H]4O)[C@H](O)[C@H]3NC(C)=O)[C@H]2O)[C@H](O)CO)cc1 [GlcNAcβ3Galβ4GlcNAcβ3Galβ4Glc(red)-HDA]
binding activity of neoglycolipid with regard to Helicobacter pylori [1]: clear binding activity

Galβ4GlcNAcβ3Galβ4GlcβCer
lowest amount of glycolipid giving a positive response on TLC plates [1]: ~0.3 nmol/spot | binding of Helicobacter pylori to the glycosphingolipid on TLC plates [1]: binding is weaker | binding of Helicobacter pylori to the glycosphingolipid on TLC plates ([1]; listed as tetraglycosylceramides): displayed binding activity | binding of Helicobacter pylori strain 032 to purified glycosphingolipids (FIGS. 7A and 7B) [1]: binding

GalNAcβ3Galβ4GlcNAcβ3Galβ4GlcβCer
binding of Helicobacter pylori to the glycosphingolipid on TLC plates [1]: bind Helicobacter pylori | binding of Helicobacter pylori to the glycosphingolipid on TLC plates ([1]; listed as x2 GSL): binding | binding of Helicobacter pylori strain 032 to purified glycosphingolipids (FIGS. 7A and 7B) [1]: binding was also found

GalNAcβ3Galβ3Galβ4GlcNAcβ3Galβ4Glcβ3Cer [GalNAcβ3-B5]
binding of Helicobacter pylori to the glycosphingolipid on TLC plates [1]: non-binding | binding of Helicobacter pylori to the glycosphingolipid on TLC plates ([1]; listed as GalNAcβ3Galβ3Galβ4GlcNAcβ3Galβ4Glcβ3Cer): did not appear to bind | binding of Helicobacter pylori to the glycosphingolipid on TLC plates ([1]; listed as no. 25): complete loss of binding

Galα3Galβ4GlcNβ3Galβ4GlcβCer
binding of Helicobacter pylori to the glycosphingolipid on TLC plates [1]: not binding | binding of Helicobacter pylori to the glycosphingolipid on TLC plates ([1]; listed as Galα3Galβ4GlcNH2βGalβ4GlcβCer): non-binding | binding of Helicobacter pylori to the glycosphingolipid on TLC plates ([1]; listed as no. 14): loss of bacterial binding

CC(=O)N[C@H]1[C@H](OC[C@H]2OC(O)[C@H](O)[C@@H](O)[C@H]2O)O[C@H](CO)[C@@H](O[C@@H]2O[C@H](CO)[C@H](O)[C@H](O[C@@H]3O[C@H](CO)[C@@H](O)[C@H](O)[C@H]3NC(C)=O)[C@H]2O)[C@@H]1O (stereo partly drawn) [GlcNAcβ3Galβ4GlcNAcβ6Gal]
binding activity of neoglycolipid with regard to Helicobacter pylori [1]: some binding activity

Galβ4GlcNAcβ3Galβ4GlcNAcβ3Galβ4GlcβCer
lowest amount of glycolipid giving a positive response on TLC plates [1]: ~0.2 nmol/spot | binding of Helicobacter pylori to the glycosphingolipid on TLC plates [1]: weaker binding; also recorded: weaker activity | binding of Helicobacter pylori to the glycosphingolipid on TLC plates ([1]; listed as Galβ4GlcNAcβ3Galβ4-GlcNAcβ3Galβ4GlcβCer): binding-active; also recorded: reduced affinity | binding of Helicobacter pylori to the glycosphingolipid on TLC plates ([1]; listed as hexaglycosylceramides): displayed binding activity | binding frequency [1]: ~90%

Galα3(Fucα2)Galβ4GlcNAcβ3Galβ4Glcβ1Cer [B6-2]
binding of Helicobacter pylori to the glycosphingolipid on TLC plates [1]: non-binding; also recorded: inactive | binding of Helicobacter pylori to the glycosphingolipid on TLC plates ([1]; listed as Galα3(Fucα2)Galβ4GlcNAcβ3Galβ4Glcβ3Cer): non-binding

GlcNAcβ3Galβ4GlcβCer
binding of Helicobacter pylori to the glycosphingolipid on TLC plates [1]: not binding | binding of Helicobacter pylori to the glycosphingolipid on TLC plates ([1]; listed as triglycosylceramide): inactive

Galα3Galβ4GlcNAcβ3Galβ4Glc(red)-HDA
binding activity of neoglycolipid with regard to Helicobacter pylori [1]: clear binding activity

GlcNAcβ3Galβ4GlcNAc(red)-HDA
binding activity of neoglycolipid with regard to Helicobacter pylori [1]: weakly binding or inactive

Glcβ3Galβ4GlcNAcβ3Galβ4GlcβCer
binding of Helicobacter pylori to the glycosphingolipid on TLC plates [1]: strong binding

Fucα2Galβ4GlcNAcβ3Galβ4Glcβ1Cer [H5-2]
binding of Helicobacter pylori to the glycosphingolipid on TLC plates [1]: absence of binding | binding of Helicobacter pylori to the glycosphingolipid on TLC plates ([1]; listed as HS-2): inactive

sialyl-lactose
efficacy in rhesus monkey animal model of the infection [2]: effective | inhibition of Helicobacter pylori binding to human gastrointestinal cell lines [3]: inhibits

NeuAcα3GalNAcβ3Galβ4GlcNAcβ3Galβ4Glcβ1Cer [NeuAc-x2]
binding of Helicobacter pylori to the glycosphingolipid on TLC plates ([1]; listed as Neu5Acα3GalNAcβ3Galβ4GlcNAcβ3Galβ4GlcβCer): did not appear to bind | binding of Helicobacter pylori to the glycosphingolipid on TLC plates ([1]; listed as NeuAcα3GalNAcβ3Galβ4GlcNAcβ3Galβ4GlcβCer): non-binding | binding of Helicobacter pylori to the glycosphingolipid on TLC plates ([1]; listed as no. 24): complete loss of binding | binding of Helicobacter pylori strain 032 to purified glycosphingolipids (FIGS. 7A and 7B) [1]: non-binding

NeuGcα3Galβ4GlcNAcβ3Galβ4GlcNAcβ3Galβ4GlcβCer
binding by Helicobacter pylori isolates ([1]; about 60 isolates tested): bound by most Helicobacter pylori isolates | binding of Helicobacter pylori to the glycosphingolipid on TLC plates [1]: weaker binding

maltoheptaose(red)-HDA [reference compound]
binding activity of neoglycolipid with regard to Helicobacter pylori [1]: weakly binding or inactive

Glc(A-methylamide)β3Galβ4GlcNAcβ3Galβ4GlcβCer
binding of Helicobacter pylori to the glycosphingolipid on TLC plates [1]: very strong binding

GalNAcα3Galβ4GlcNAcβ3Galβ4GlcβCer
binding of Helicobacter pylori to the glycosphingolipid on TLC plates [1]: bind Helicobacter pylori | binding of Helicobacter pylori to the glycosphingolipid on TLC plates ([1]; listed as GalNAcα3 Galβ4GlcNAcβ3Galβ4GlcβCer): binding was also found

GlcNAcβ3Galβ4GlcNAcβ3Galβ4GlcβCer
lowest amount of glycolipid giving a positive response on TLC plates [1]: 0.039 nmol/spot | binding of Helicobacter pylori to the glycosphingolipid on TLC plates [1]: binding-active; also recorded: high affinity | binding of Helicobacter pylori to the glycosphingolipid on TLC plates ([1]; listed as five-sugar glycosphingolipid from rabbit thymus): equally active | binding of Helicobacter pylori to the glycosphingolipid on TLC plates ([1]; listed as pentaglycosylceramide): strong activity; also recorded: highly active; also recorded: most active species | binding of Helicobacter pylori to the glycosphingolipid on TLC plates ([1]; listed as pentaglycosylceramides): displayed binding activity | binding frequency [1]: ~90%

Galβ4GlcNβ3Galβ4GlcβCer
binding of Helicobacter pylori to the glycosphingolipid on TLC plates [1]: not binding | binding of Helicobacter pylori to the glycosphingolipid on TLC plates ([1]; listed as no. 6): loss of bacterial binding

Galβ4GlcNAcβ3(Galβ4GlcNAcβ6)Galβ4GlcβCer
binding of Helicobacter pylori to the glycosphingolipid on TLC plates [1]: destroyed | binding of Helicobacter pylori to the glycosphingolipid on TLC plates ([1]; listed as glycosphingolipid from bovine buttermilk): non-binding

GlcNAcβ3Galβ4GlcNAcβ6GlcNAc(red)-HDA
binding activity of neoglycolipid with regard to Helicobacter pylori [1]: strong binding activity | binding activity of neoglycolipid with regard to Helicobacter pylori ([1]; listed as GlcNAcβ3Galβ4GlcNAcβ6GlcNAc): high affinity binding

GlcAβ3Galβ4GlcNAcβ3Galβ4GlcβCer
binding of Helicobacter pylori to the glycosphingolipid on TLC plates [1]: binding active

Galα3Galβ4GlcNAcβ3Galβ4GlcβCer
binding of Helicobacter pylori to the glycosphingolipid on TLC plates [1]: bind Helicobacter pylori | binding of Helicobacter pylori to the glycosphingolipid on TLC plates ([1]; listed as B5): binding | binding of Helicobacter pylori to the glycosphingolipid on TLC plates ([1]; listed as B5 glycosphingolipid): equally active | binding of Helicobacter pylori strain 032 to purified glycosphingolipids (FIGS. 7A and 7B) [1]: binding-active

Galα3Galβ4GlcNAcβ3Galβ4GlcNAcβ3Galβ4GlcβCer
binding of Helicobacter pylori to the glycosphingolipid on TLC plates [1]: higher activity | binding of Helicobacter pylori to the glycosphingolipid on TLC plates ([1]; listed as no. 28): observed binding
